Literature values as cited in US6281194A, “Cycloalkyl inhibitors of protein farnesyltransferase” (Warner-Lambert Company, priority 1999, dated 2001).

Tests used:
[1] = test system: EJ-1 human bladder carcinoma, HT1080 human fibrosarcoma and human colon carcinoma xenografts; settings: 100 mg/kg, nude mice; cited from earlier work
[2] = test system: human lung carcinoma with K-ras mutation and p53 deletion; settings: nude mice; cited from earlier work
[3] = test system: mammary and salivary carcinomas; settings: daily administration; cited from earlier work

## COC(=O)[C@H](CCSC)NC(=O)[C@H](/C=C\[C@@H](/C=C/[C@@H](N)CS)C(C)C)Cc1ccccc1 [Example B1086]
[1]
  tumor growth (in words): inhibit tumor growth

## CSCC[C@H](NC(=O)c1ccc(NC[C@@H](N)CS)cc1-c1ccccc1)C(=O)O [FTI276]
[2]
  tumor growth (in words): selectively block tumor growth

## CC[C@H](C)[C@@H](CO[C@@H](Cc1ccccc1)C(=O)N[C@@H](CCS(C)(=O)=O)C(=O)OC(C)C)NC[C@@H](N)CS [L-744,832]
[3]
  tumor regression (in words): caused tumor regression
